Results taken from patent US20260306640A1, “TECHNOLOGIES TARGETING CELL STATES” (Auron Therapeutics, Inc., priority 2023, published 2026).

Tests used:
KAT2B [1] = biological target: T1, KAT2B (Homo sapiens, UniProt Q92831); assay: KAT2B degradation, Western Blot (Jess), NCI-H1048 cells; format: cell-based; design: degrader, Western blot (Jess); conditions: NCI-H1048, KAT2B
In short: (§1)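 NCI-H1048 cells grown in HITES medium with 5% FBS were treated with compounds for 24 h at 37° C. Lysates were run by capillary Western (Jess) with KAT2A or KAT2B antibodies and chemiluminescent detection. DC50 derived from percent protein reduction versus DMSO control.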

KAT2A [2] = biological target: T2, KAT2A (Homo sapiens, UniProt Q92830); assay: KAT2A degradation, Western Blot (Jess), MOLM-13 cells; format: cell-based; design: degrader, Western blot; conditions: MOLM-13, KAT2A
T2 sequence (Q92830 whole entry): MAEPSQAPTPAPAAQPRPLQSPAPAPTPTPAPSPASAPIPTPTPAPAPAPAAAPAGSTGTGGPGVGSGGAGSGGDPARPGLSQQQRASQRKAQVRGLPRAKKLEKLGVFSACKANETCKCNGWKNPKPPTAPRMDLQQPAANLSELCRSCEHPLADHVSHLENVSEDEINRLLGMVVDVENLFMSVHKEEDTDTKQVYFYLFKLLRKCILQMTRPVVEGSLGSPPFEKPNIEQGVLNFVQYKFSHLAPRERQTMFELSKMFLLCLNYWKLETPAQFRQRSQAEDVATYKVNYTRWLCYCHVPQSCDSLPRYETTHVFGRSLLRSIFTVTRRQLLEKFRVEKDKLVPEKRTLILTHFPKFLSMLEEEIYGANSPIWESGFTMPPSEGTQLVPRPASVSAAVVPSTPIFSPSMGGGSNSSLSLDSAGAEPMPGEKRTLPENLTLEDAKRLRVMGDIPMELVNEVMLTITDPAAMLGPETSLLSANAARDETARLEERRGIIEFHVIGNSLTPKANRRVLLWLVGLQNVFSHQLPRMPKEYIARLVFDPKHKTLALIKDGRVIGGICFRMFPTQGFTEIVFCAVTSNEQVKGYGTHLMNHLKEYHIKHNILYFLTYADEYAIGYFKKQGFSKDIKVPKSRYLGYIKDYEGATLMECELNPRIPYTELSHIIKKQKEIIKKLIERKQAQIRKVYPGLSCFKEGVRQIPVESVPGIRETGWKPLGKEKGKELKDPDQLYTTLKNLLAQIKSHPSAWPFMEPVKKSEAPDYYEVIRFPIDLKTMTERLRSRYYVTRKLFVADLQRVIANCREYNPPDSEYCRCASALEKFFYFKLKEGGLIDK
In short: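 MOLM-13 cells in RPMI 1640/20% FBS were treated with compound for 24 h at 37 °C. RIPA lysates (4 μg) were run on a capillary Western (Jess) with anti-KAT2A antibody and chemiluminescent detection. DC50 comes from percent protein reduction versus DMSO control.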

KAT2A [3] = biological target: T2, KAT2A; assay: KAT2A degradation, Western Blot (Jess), NCI-H1048 cells; format: cell-based; design: degrader, Western blot (Jess); conditions: NCI-H1048, KAT2A
In short: as §1

NCI-H1048 cells = assay: Cell growth inhibition, SCLC cell line NCI-H1048 (cell count, day 11); format: cell-based, human; conditions: Homo sapiens; NCI-H1048, comparison table with Ref-1; read-out: Growth GI50
Text: (§2) Among other things, provided technologies are useful for treating various diseases, disorders, or conditions. For example, in some embodiments, provided technologies are useful for treating cancer as confirmed in the present Example. […] In some embodiments, provided technologies can inhibit cell proliferation. In some embodiments, the present disclosure provides technologies for assessing various technologies, e.g., compounds, compositions, or methods. Among other things, the present Example provides technologies, e.g., cell growth inhibition assay, for assessing various technologies. […] In some embodiments, the following cell growth inhibition methods are utilized to assess provided technologies.
SCLC: SCLC cell lines NCI-H1048 and NCI-H1876 were cultured in DMEM F12 media with 5% FBS, 1% Penicillin/Streptomycin and HITES supplement (Hydrocortisone, Insulin, Transferrin, Estradiol and Sodium Selenite). NCI-H1048 cells were plated at 10,000 cells/well of a 24-well plate and NCI-H1876 cells were plated at 20,000 cells/well of a 96-well plate. Compound and media were replenished every two days out to day 11 and 10 respectively. Cells were then trypsinized and counted using either hemocytometer or an automated Countess cell counter.
(§3) In some assessments, for cell growth inhibition, cells, e.g., MOLM13, NCI-H1048, and LASCPC-01 cells, were counted using a hemocytometer or automated cell counting in triplicates. In some assessments, proliferation in NEPC organoids as measured with Cell Titer Glo reagent (Promega). Growth inhibition was determined relative to vehicle control.

KAT2B [4] = biological target: T1, KAT2B; assay: KAT2B degradation, Western Blot, MOLM-13 cells; format: cell-based; design: degrader, Western blot; conditions: MOLM-13, KAT2B
Procedure: MOLM-13 cells were maintained at 37° C. in 5% CO2 and 90% humidity in RPMI 1640 supplemented with 20% fetal bovine serum (FBS) and 1× penicillin/streptomycin. Cells were plated in full media at 1-2 million cells/2 mL in a 6-well tissue culture treated plate with or without compounds for 24 h at 37° C. in 5% CO2.
MOLM-13 cells or NCI-H1048 cells were washed with PBS, then lysed with RIPA buffer containing 1×protease and phosphatase inhibitors (SantaCruz Biotechnologies Cat #sc-24948A). Protein was isolated by centrifugation at 12,000×g for 10 minutes at 4° C. and supernatant was collected. Protein was quantified via Bradford assay. Samples were diluted to 4 μg lysate in 16 μL RIPA buffer and then 4 μL of Jess Sample Buffer. Samples were heated at 95° C. for 5 minutes. Samples were loaded onto 12-230 kDa Jess™ Separation Module, 8×25 capillary cartridges (SM-W004, Biotechne). Antibodies loaded were: Primary antibody for KAT2A (GCN5L2 (C26A10) Rabbit mAb (3305, CST)) and for KAT2B (PCAF (C14G9)) Rabbit mAb (3378, CST) at 1:1000 and Anti-Rabbit Detection Module for Jess™ (Cat No #DM-001, Biotechne). Signal was detected by chemiluminescence.
DC50 values were determined from percent reduction of protein as compared to the DMSO control.

MOLM-13 cells = assay: Cell growth inhibition, AML cell line MOLM-13 (CyQuant, day 7); format: cell-based; conditions: Homo sapiens; MOLM-13, comparison table with Ref-1; read-out: Growth GI50
Text: as §2
AML: AML cell line MOLM-13 cells were cultured in RPMI+15% FBS and were plated at 500 cells/well in 100 uL media in a U-bottom 96-well plate. Compounds were dilute to 3×final in full media and 50 uL were added to corresponding wells. Compound and media were replenished on days 2 and 5. On day 7, cells were transferred to a 96-well black bottom plate and CyQuant was performed per manufacturer's instructions.
as §3

[5] = 24 h, read-out: DC90 (the source's name)

T1 sequence (Q92831 whole entry): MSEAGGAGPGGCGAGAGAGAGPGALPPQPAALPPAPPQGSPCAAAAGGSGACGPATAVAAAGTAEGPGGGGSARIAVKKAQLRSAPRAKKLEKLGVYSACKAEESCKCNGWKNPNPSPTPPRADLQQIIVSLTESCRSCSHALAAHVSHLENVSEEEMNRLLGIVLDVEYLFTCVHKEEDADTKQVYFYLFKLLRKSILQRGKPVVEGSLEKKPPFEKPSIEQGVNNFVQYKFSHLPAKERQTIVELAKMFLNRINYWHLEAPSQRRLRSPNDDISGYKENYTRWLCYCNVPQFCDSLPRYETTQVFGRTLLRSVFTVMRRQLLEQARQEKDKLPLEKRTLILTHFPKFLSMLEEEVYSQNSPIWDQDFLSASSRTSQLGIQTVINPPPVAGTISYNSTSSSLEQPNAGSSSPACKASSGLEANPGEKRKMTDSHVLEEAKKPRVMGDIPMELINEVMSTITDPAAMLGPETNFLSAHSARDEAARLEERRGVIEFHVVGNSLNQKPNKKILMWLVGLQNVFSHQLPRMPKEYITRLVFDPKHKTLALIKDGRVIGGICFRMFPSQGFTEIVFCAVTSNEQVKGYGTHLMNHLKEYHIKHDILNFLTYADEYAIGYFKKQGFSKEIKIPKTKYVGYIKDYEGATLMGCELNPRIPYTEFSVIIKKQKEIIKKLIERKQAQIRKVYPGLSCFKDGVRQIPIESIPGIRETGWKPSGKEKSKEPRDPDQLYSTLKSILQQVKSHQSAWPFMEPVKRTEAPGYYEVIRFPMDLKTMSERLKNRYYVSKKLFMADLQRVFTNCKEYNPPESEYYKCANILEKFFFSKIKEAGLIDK

In the case of CN1C[C@H](Nc2cnn(C)c(=O)c2Br)C[C@H](c2ccc(C(=O)N(C)CCCN(C)c3ccc(CCCOc4cccc5c4C(=O)N(C4CCC(=O)NC4=O)C5=O)cc3)cc2)C1 (stereo partly shown) [Compound Ref-1, reference compound], the EC90 (KAT2B [1]; [5]) was 1 nM, the DC50 (KAT2B [1]; read-out: DC50) was 0.1 nM and the EC90 (KAT2A [2]; [5]) was 51 nM. For the same compound, the DC50 (KAT2A [2]; read-out: DC50) was 2.2 nM, the EC90 (KAT2A [3]; [5]) was 16 nM and the DC50 (KAT2A [3]; read-out: DC50) was 1.5 nM. For the same compound, the GI50 (NCI-H1048 cells) was 32 nM, the EC90 (KAT2B [4]; [5]) was 1.8 nM and the DC50 (KAT2B [4]) was 0.075 nM. It also gave a GI50 (MOLM-13 cells) of 60 nM.
